Measurements taken from patent US5354749A, “Sulfonylbenzyl-substituted benzo- and pyridopyridones” (Bayer Aktiengesellschaft, priority 1992, dated 1994).

Assays:
[1] = test system: angiotensin II-induced contraction of the isolated rabbit aorta; experiment: Inhibition of angiotensin II-induced contraction (vasoconstriction) on isolated aortic rings from rabbits in vitro; settings: at 3rd = submaximum agonist concentration
Experimental: Rabbits of both sexes are stunned by a blow to the neck and exsanguinated, or optionally anaesthetised with Nembutal (about 60-80 mg/kg i.v.) and sacrificed by opening the thorax. The thoracic aorta is removed, freed from adhering connective tissue and divided into ring segments 1.5 mm wide, and these are introduced individually, under an initial load of about 3.5 g, into 10 ml organ baths with carbogen-gassed Krebs-Henseleit nutrient solution thermostatically controlled at 37° C. and having the following composition: 119 mmol/l of NaCl; 2.5 mmol/l of CaCl2 ×2 H2 O; 1.2 mmol/l of KH2 PO4; 10 mmol/l of glucose; 4.8 mmol/l of KCl; 1.4 mmol/l of MgSO4 ×7 H2 O and 25 mmol/l of NaHCO3.
The contractions are recorded isometrically by Statham UC2 cells via a bridge amplifier (from Mulheim or DSM Aalen) and digitised and evaluated by means of an A/D converter (System 570, Keithley Munich). The agonist dose/effect curves (DEC) are plotted hourly. For each DEC, 3 or 4 individual concentrations are applied to the baths at intervals of 4 minutes. At the end of the DEC and the subsequent wash-out cycles (16 times for in each case about 5 seconds/minute with the abovementioned nutrient solution), a 28-minute rest or incubation phase follows, within which the contractions as a rule reach the starting value again. […]

Angiotensin II receptor = biological target: T1, Angiotensin II receptor (Bos taurus, UniProt P25104); experiment: Angiotensin II receptor binding on membrane fractions of the adrenal cortex (3H-angiotensin II); settings: bovine adrenal cortex membranes; 3H-angiotensin II 3-5 nM; 60 minutes, room temperature
T1 construct: carried out on partially purified membrane fractions of bovine AC with radioactive angiotensin II; from tissue; host or cells: bovine adrenal cortex, partially purified membrane fractions
T1 sequence (P25104 1-359): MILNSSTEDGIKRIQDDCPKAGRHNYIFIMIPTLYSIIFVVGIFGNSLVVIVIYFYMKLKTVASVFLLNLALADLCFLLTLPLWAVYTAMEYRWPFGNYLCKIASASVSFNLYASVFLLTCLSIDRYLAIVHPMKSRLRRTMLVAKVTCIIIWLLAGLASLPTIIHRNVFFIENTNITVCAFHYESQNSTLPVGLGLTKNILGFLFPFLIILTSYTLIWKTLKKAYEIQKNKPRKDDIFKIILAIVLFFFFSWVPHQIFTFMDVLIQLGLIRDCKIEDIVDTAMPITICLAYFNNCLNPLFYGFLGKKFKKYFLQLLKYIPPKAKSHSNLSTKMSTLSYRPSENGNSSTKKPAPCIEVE
Experimental: Bovine adrenal cortices (AC) which are freshly removed and thoroughly freed from medulla of the capsule are comminuted in sucrose solution (0.32 M) with the aid of an Ultra-Turrax (Janke & Kunkel, Staufen i.B.) to give a coarse membrane homogenate, which is partially purified in two centrifugation steps to give membrane fractions. The investigations in receptor binding are carried out on partially purified membrane fractions of bovine AC with radioactive angiotensin II in an assay volume of 0.25 ml which contains, specifically, the partially purified membranes (50-80 μg), ^3 H-angiotensin II (3-5 nM), test buffer solution (50 mM Tris, pH 7.2) 5 mM MgCl2 and the substances to be investigated. After an incubation time of 60 minutes at room temperature, the non-bound radioactivity of the samples is separated off by means of moistened glass fibre filters (Whatman GF/C) and the bound radioactivity is measured […] in a scintillation cocktail, after the protein has been washed with ice-cold buffer solution (50 mM Tris/HCl, pH 7.4, 5% PEG 6000). The raw data were analysed with computer programs to give Ki and IC50 values (Ki : IC50 values corrected for the radioactivity used; IC50 values: concentration at which the substance to be investigated causes 50% inhibition of the specific binding of the radioligand).

IC50 [1]: 660 nM
Ki (Angiotensin II receptor): 1700 nM
SMILES: CCCCc1cc2ccccc2c(=O)n1Cc1ccc(S(=O)(=O)N2CCCC2C(=O)O)cc1Cl (centres unmarked) [Example 2, N-4-[3-Butyl-1,2-dihydro-1-oxo-isoquinolin-2-yl-methyl]3-chlorophenylsulphonylproline]
